Experimental data published in ChEMBL document CHEMBL1795334, “Towards predictive inhibitor design for the EGFR autophosphorylation activity” (Eur J Med Chem, 2008).

Target: Epidermal growth factor receptor (Homo sapiens, UniProt P00533)
Assay: Inhibition autophosphorylation of EGFR in human DiFi cells after 2 hrs by ELISA
Type: cell-based

Epidermal growth factor receptor, sequence (P00533 whole entry): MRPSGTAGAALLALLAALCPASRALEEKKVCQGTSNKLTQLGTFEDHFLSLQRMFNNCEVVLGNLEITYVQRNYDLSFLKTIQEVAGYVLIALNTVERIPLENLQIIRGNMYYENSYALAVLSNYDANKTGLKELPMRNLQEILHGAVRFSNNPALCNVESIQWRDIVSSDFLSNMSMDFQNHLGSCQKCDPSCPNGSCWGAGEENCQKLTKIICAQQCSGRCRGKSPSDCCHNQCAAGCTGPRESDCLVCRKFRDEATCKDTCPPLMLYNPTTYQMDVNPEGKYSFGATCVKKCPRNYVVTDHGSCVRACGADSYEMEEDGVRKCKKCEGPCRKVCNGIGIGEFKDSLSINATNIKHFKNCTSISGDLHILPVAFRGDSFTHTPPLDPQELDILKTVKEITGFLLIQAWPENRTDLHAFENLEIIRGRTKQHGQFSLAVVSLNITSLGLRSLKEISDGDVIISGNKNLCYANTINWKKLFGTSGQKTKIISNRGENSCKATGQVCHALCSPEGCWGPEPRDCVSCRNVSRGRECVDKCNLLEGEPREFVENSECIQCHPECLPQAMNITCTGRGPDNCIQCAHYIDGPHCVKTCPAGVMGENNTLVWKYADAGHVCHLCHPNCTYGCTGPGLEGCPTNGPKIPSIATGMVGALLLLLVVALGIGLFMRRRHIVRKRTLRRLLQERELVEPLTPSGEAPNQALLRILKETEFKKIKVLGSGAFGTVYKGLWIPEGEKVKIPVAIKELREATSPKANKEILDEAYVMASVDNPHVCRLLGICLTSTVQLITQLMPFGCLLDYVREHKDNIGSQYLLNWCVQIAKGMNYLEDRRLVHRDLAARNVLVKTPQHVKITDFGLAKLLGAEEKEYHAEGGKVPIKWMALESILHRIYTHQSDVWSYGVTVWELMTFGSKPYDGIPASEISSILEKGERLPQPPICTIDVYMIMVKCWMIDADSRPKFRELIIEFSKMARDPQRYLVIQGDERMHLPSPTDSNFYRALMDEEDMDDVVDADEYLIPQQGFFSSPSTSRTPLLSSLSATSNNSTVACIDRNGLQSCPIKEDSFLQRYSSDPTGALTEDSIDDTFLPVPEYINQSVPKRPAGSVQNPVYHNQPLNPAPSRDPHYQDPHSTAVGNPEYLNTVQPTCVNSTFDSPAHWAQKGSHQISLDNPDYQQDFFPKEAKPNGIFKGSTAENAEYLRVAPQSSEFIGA

Structure (SMILES)	IC50
CCOc1cc2ncc(C#N)c(Nc3cccc(Br)c3)c2cc1OC	21.4 µM
COc1cc2ncc(C#N)c(Nc3ccc(O)c(Cl)c3)c2cc1OC	9.12 µM
COc1cc2ncc(C#N)c(Nc3cccc(C(C)C)c3)c2cc1OC	61.7 µM
COc1cc2ncc(C#N)c(Nc3cccc(NC(C)=O)c3)c2cc1OC	69.2 µM
COc1cc2ncc(C#N)c(Nc3cccc(C#N)c3)c2cc1OC	14.1 µM
CCOc1cc2c(Nc3cccc(Br)c3)c(C#N)cnc2cc1OC	33.1 µM
COc1cc2ncc(C#N)c(Nc3cccc(O)c3)c2cc1OC	6.31 µM
COc1cc2ncc(C#N)c(Nc3ccc(Cl)cc3F)c2cc1OC	13.8 µM
COCOc1cc2ncc(C#N)c(Nc3cccc(Br)c3)c2cc1OCOC	6.76 µM
COc1cc2ncc(C#N)c(Nc3cccc(C(N)=O)c3)c2cc1OC	7.76 µM
COc1cc2ncc(C=O)c(Nc3cccc(Br)c3)c2cc1OC	3.39 µM
COc1cc2ncc(C#N)c(Nc3ccc(F)cc3)c2cc1OC	47.9 µM
COc1cc2ncc(C#N)c(Nc3ccccc3Br)c2cc1OC	4.17 µM
COc1cc2c(C#N)cnc(Nc3cccc(Cl)c3)c2cc1OC	89.1 µM
COc1cc2ncc(C(=O)O)c(Nc3cccc(Br)c3)c2cc1OC	33.9 µM

Compounds with a lower IC50, results first:

IC50	Structure (SMILES)
1.78 µM	COc1cc2ncc(C#N)c(Nc3ccc(C)c(Br)c3)c2cc1OC
1.48 µM	COc1cc2ncc(C#N)c(Nc3ccc(C)c(Cl)c3)c2cc1OC
0.977 µM	CCOc1cc2ncc(C#N)c(Nc3ccc(F)c(Cl)c3)c2cc1OCC
0.832 µM	COc1cc2ncc(C#N)c(Nc3cccc(Br)c3C)c2cc1OC
0.813 µM	COc1cc2ncc(C#N)c(Nc3cccc(N)c3)c2cc1OC
0.759 µM	COc1cc2ncc(C#N)c(Nc3cccc(SC)c3)c2cc1OC
0.617 µM	COc1cc2ncc(C#N)c(Nc3ccc(Br)c(C)c3)c2cc1OC
0.417 µM	CCOc1cc2ncc(C#N)c(Nc3cccc(Br)c3)c2cc1OCC
0.182 µM	COc1cc2ncc(C#N)c(Nc3cccc(Cl)c3)c2cc1OC
